The values that follow come from patent US20150292030A1, “METHODS OF CHARACTERIZING AND TREATING MOLECULAR SUBSET OF MUSCLE-INVASIVE BLADDER CANCER” (BOARD OF REGENTS, THE UNIVERSITY OF TEXAS SYSTEM, priority 2012, published 2015).

Experiment [1] concerns muscle-invasive bladder cancer. Briefly: Pathological response to neoadjuvant chemotherapy at cystectomy by cluster, discovery cohort. The conditions noted are these: cluster 2 (p53-like); FIG. 1D. Format: in vivo, human. The source says:
Tumors and clinical data were obtained from the MD Anderson genitourinary cancers research database. Fresh frozen tissues were obtained from the SPORE Tissue Core. Of note, all patients had previously signed informed consent allowing collection of their tissue and of their clinical data in the genitourinary research database. […] Patients were classified as muscle invasive for tumor growth into the muscularis propria; otherwise, they were classified as non-muscle invasive. Total RNA from human specimens were isolated using mirVana miRNA isolation kit (Ambion, Inc).
Presurgical (neoadjuvant) cisplatin-based chemotherapy is the current standard-of-care for high-risk muscle-invasive bladder cancer. […] To examine the relationship between the 3 molecular subsets and chemotherapy sensitivity, the inventors identified 18 patients within their discovery cohort that had received neoadjuvant chemotherapy and compared the pathological response rates within each cluster. Strikingly, whereas over half of the basal/cluster 1 (3/5) and luminal/cluster 3 (4/6) tumors responded to chemotherapy, none (0/7) of the p53-like cluster 2 tumors was downstaged in this initial cohort (Table 3). […] Gene expression profiling classified 3 of the tumors as basal, 4 as luminal, and 9 as p53-like (FIG. 7). […]

The subject of experiment [2] is human bladder cancer cell lines. The experiment is described as follows: Proliferation (MTT) assay of BGJ398 on a panel of 30 human bladder cancer cell lines. It counts as cell-based. As to conditions: lines SW780, UC1, RT112, RT4 and UC14; FIG. 6. The text has this: FIG. 6. Proliferation (MTT) assay testing effect of BGJ398 on human bladder cancer cell lines.
To test this possibility, the inventors examined the effects of the FGFR-selective inhibitor BGJ398 on proliferation in the inventor's panel of 30 human bladder cancer cell lines using MTT assays.

Take `N.N.[Cl][Pt][Cl]` [cisplatin]: the observed cisplatin resistance result in experiment [1] is recorded as “resistance”.
For `CCN1CCN(c2ccc(Nc3cc(N(C)C(=O)Nc4c(Cl)c(OC)cc(OC)c4Cl)ncn3)cc2)CC1` [BGJ398], the “drug sensitivity of proliferation (MTT)” value in experiment [2] is on record as “most drug-sensitive”.
